According to US10618937B2, “Method of treating Alzheimer's disease” (INDUSTRY-ACADEMIC COOPERATION FOUNDATION GYEONGSANG …, priority 2016, dated 2020):

How the values were obtained:
APP/PS1 mice = experiment: Thioflavin S staining / immunofluorescence analysis of amyloid plaques in brain; type: in vivo; conditions: IP once every 2.5 days for 45 days
Protocol: Adiponectin receptor-activating novel peptide (5AA1) was IP administered to 10 week old APP/PS1 mice once every 2.5 days for 45 days, and then, to prepare a slide section, the brains of the mice were fixed by transcardial perfusion of ice-cold 4% paraformaldehyde. The brains were fixed in 4% paraformaldehyde for 72 hours, and then, transferred to 20% sucrose and maintained at a temperature of 4° C. for 72 hours. The brains were placed in an optimal cutting temperature (OCT) compound (A.O., USA), frozen in liquid nitrogen, and sectioned into coronal plane (14 μm) in CM 3050C cryostat (Leica, Germany). Pictures of tissue sections were taken on ProbeOn Plus charged slides (Fisher, USA).
Immunofluorescence analysis was performed by using minor modifications of the method described in the existing study (Shah et al., 2014; Shah et al., 2015). Slides containing tissue sections were washed twice with a 0.01 M PBS solution for 15 minutes. Proteinase K was added to the tissue sections, which were then cultured at a temperature of 37° C. for 5 minutes. The tissue sections were then reacted in a blocking solution (5% normal goat serum, 0.3% Triton X-100, PBS) for 1 hour. The slides were reacted overnight with the primary antibody (the same antibody used in the ‘Western blot analysis’) and then reacted with secondary TRITC- or FITC-conjugated antibodies (diluted 1:50 in PBS; Santa Cruz) at room temperature for 90 minutes. The slides were dipped in Prolong Antifade reagent (Molecular Probe, Eugene, Oreg., USA) and stained. All stained slides were analyzed with a confocal laser scanning microscope (Flouview FV 1000). Amyloid plaques were visualized in brain slices after Thioflavin S staining. The brain slices were washed twice with 0.01 M PBS for 10 minutes, and then immersed in fresh 1% Thioflavin S solution at room temperature for 10 minutes. The brain slices were then immersed in 70% ethanol for 5 minutes, then washed twice with water, counterstained with propidium iodide (PI) and covered with cover glass.
Morphological analysis and signals were analyzed with Image J software (open source software provided by the US NIH), and the analysis results were expressed as IOD (Integral Optical Density). The ratio of the amyloid deposit site in the proposed area was also quantified by using Image-J software.

[1] = system: primary hippocampus neurons; experiment: In vitro electrophysiological analysis (AMPAR-mediated mEPSCs); type: cell-based, Sprague-Dawley rats; conditions: compared to the Aβ group, various concentrations
Protocol: Primary hippocampus neurons isolated from E19 Sprague-Dawley rats were cultured to a density of 150 cells/mm^2. AMPA receptor (AMPAR)-mediated miniature excitatory postsynaptic currents (mEPSCs) were recorded by using conventional whole-cell techniques. When primary hippocampus neurons were filled with an internal solution, the electrode resistance was varied from 3 MΩ to 5 MΩ.
The inventors of the present specification performed current measurements by using an Axopatch 200A patch-clamp amplifier (Molecular Devices, Sunnyvale, Calif.).
The voltage of the membrane and the voltage of current, commands, and digitization were adjusted by using Digidata 1322A connected to Clampex 9.2 (Molecular Devices, Sunnyvale, Calif.) of the pClamp software package on an IBM-compatible computer. The inventors of the present specification analyzed data by using Clampfit (Molecular Devices, Sunnyvale, Calif.) and Prism 4.0 (GraphPad, San Diego, Calif.). The current was low-pass filtered at 2 kHz by using an amplifiers four-pole Bessel filter. […]
The cumulative probability curve of mEPSCs was calculated by using Clampfit 9.0 software and Prism 4.0 (GraphPad, San Diego, Calif.). […]

“RGPCG (adiponectin receptor-activating peptide) [5AA1]” was tested, and the “amyloid β plaque in the cortex and hippocampus of the brain” value (APP/PS1 mice) was “remarkably reduced” and the mEPSC frequency [1] was “statistically significantly increased”.
